The test system of one assay is Ag IIa HCV IRES Target. The assay is described as follows: MASS screening against Ag IIa HCV IRES target. In kind it is binding. Conditions: target conc. […], ligand conc. 50 μM; for Selectivity: by mass spectral analysis. The protocol: A series of 2-aminobenzimidazole dimers were synthesized according to the procedure described in Example 11. A series of 5- and 6-substituted-2-aminobenzimidazoles also were synthesized, and all were evaluated for biological activity. Tables 4-7 report MIC and transcription/translation activity for the dimer compounds By the outlined procedure. Tables 8 and 9 report the MASS screening of 2-aminobenzimidazoles against the AgIIa HCV-IRES target. The reported selectivity was determined by mass spectral analysis of any associations and provides information about the relative binding affinities.

The subject of assay [1] is E. coli. Nature of the assay: MIC assay of Example 20, E. coli. In kind it is cell-based. The note with it: Tables 4-7. On the procedure: (§1) The assays are carried out in 150 μL volume in duplicate in 96-well clear flat-bottom bottom plates. The bacterial suspension from an overnight culture growth in appropriate medium is added to a solution of test compound in 4% DMSO in water. Final bacterial inoculum is approximately 10^5-10^6 CFU/well. The percent growth of the bacteria in test wells relative to that observed for a well containing no compound is determined by measuring absorbance at 595 nm (A595) after 24 h. The MIC is determined as a range of single compound where the complete inhibition of growth is observed at the higher concentration and cells are viable at the lower concentrations. Both ampicillin and tetracycline are used as antibiotic-positive controls in each screening assay for S. pyogenes, E. coli, S. aureus, E. faecalis, K. pneumoniae and P. vulgaris; . Ciprofloxacin is used as an antibiotic positive control in each screening assay for P. aeruginosa.

For assay [2], the system named is Bacterial Transcription/Translation. The assay is described as follows: bacterial transcription/translation assay (pBestLuc luciferase, E. coli S30 extract). In kind it is biochemical. The protocol: This series of assays is known to those of skill in the art, and other assays may be substituted therefore without deviating from the spirit and scope hereof. The DNA template, pBestLuc™ (Promega), is a plasmid containing a reporter gene for firefly luciferase fused to a strong tac promoter and ribosome binding site. Messenger RNA from 1 μg pBestLuc is transcribed and translated in E. coli S30 bacterial extract in the presence or absence of test compound. Compounds are tested in a black 96 well microtiter plate with an assay volume of 35 μL. […] The transcription/translation reaction is incubated for 35 minutes at 37° C. followed by detection of functional luciferase with the addition of 30 μL LucLite™ (Packard). Light output is quantitated on a Packard TopCount.

The test system of assay [3] is S. aureus. The assay is described as follows: MIC assay of Example 20, S. aureus. In kind it is cell-based. Conditions: Tables 4-7. The protocol: as §1
Assay [4] deals with S. aureus. The assay is described as follows: in vitro antibacterial activity (MIC) against S. aureus. In kind it is cell-based. The note with it: Staphylococcus aureus; Tables 1 and 2.
Method: (§2) Compounds were evaluated for in vitro antibacterial activity (referred to MIC, the minimum concentration inhibiting fungal cell growth) against S. aureus and E. coli. […] The assays are carried out in 150 mL volume in duplicate in 96-well clear flat-bottom plates. […] Final bacterial or yeast inoculum is approximately 10^2-10^3 CFU/well. […] (bacteria) or 40-48 hours (yeast) at 25° C. The MIC is determined as a range of concentration where complete inhibition of growth is observed at the higher concentration and bacterial/yeast cells are viable at the lower concentration. Ampicillin and tetracycline are used as antibiotic positive controls for bacterial MIC assays.
(§3) The assays are carried out in 150 μL volume in duplicate in 96-well clear flat-bottom plates. […] Final bacterial or yeast inoculum is approximately 10^2-10^3 CFU/well. […] (bacteria) or 40-48 hours (yeast) at 25° C. The MIC is determined as a range of concentration where complete inhibition of growth is observed at the higher concentration and bacterial/yeast cells are viable at the lower concentration. Ampicillin and tetracycline are used as antibiotic positive controls for bacterial MIC assays.
For assay [5], the system named is E. coli. The assay is described as follows: in vitro antibacterial activity (MIC) against E. coli. In kind it is cell-based. The note with it: Escherichia coli; Tables 1 and 2.
Method: as §2, §3
In assay [6] the test system is E. coli 16S A-site. The assay is described as follows: MS-based competition experiments to determine the binding location. The note with it: competition of 1 with glucosamine. The source says:
MS-based competition experiments were used to determine the binding location of 1 to the target RNA. Glucosamine is the A-ring of paromomycin that is known to bind to the target RNA and inhibits bacterial translation.

For assay [7], the system named is E. coli 16S A-site. The assay is described as follows: MS-based assay of binding affinity for 16S RNA A-site. An excerpt: It has been established that the 16S A-site is involved in bacterial translation, and the aminoglycosides are known to bind to the region. Thus, the bacterial 16S A-site represents a prime target for discovering antibacterial agents, and much work has focused on the modification of the natural aminoglycosides. […] These are shown below in Scheme 17. [drawing 31]
The synthesis of compound 1 and piperidine-modified benzimidazoles are shown above in Scheme 17.
A series of benzimidazole-modified analogs were prepared as shown above. The procedure required the simple heating of a suitable 1,2-dianiline (8) with isonipecotic acid (9) in the presence of polyphosphoric acid.

[8] abbreviates: Tables 4-7, read-out: Transcription/Translation, IC50.

The results in this text go back to US7244847B2, “Benzimidazole compounds” (Isis Pharmaceuticals, Inc., priority 2002, dated 2007).

pIC50: −log10 of the molar value. Values after ≈ are worked out from the molar mass of the structure shown. Where two headings read alike, the source gives them in different places.

Take `Cc1ccc2nc(N)n(CCCN(C)C)c2c1` [CH3]: in the assay with Ag IIa HCV IRES Target, the “% Complex” value is 136%, the “% Dimer” value amounted to 31% and the Selectivity is 6.55.

Usually MIC stands for the lowest concentration found to suppress growth. In the case of `CN(CCn1c(N)nc2ccccc21)CCn1c(N)nc2ccccc21` [X = H], the minimum inhibitory concentration (MIC) against E. coli [1] and in the assay with S. aureus [3] was >100 µM in each case. Also, the pIC50 in assay [2] (setting [8]) was < 4.00.

On to `CC(C)(C)OC(=O)N1CCC(c2nc3cc(Cl)c(Cl)cc3n2Cc2ccc(CBr)cc2)CC1` [Compound 4g], for which the MIC against S. aureus [4] was 52 µM (≈ 28.8 µg/mL); in the assay with E. coli [5], > 100 µM. In addition, the pIC50 in assay [2] (Tables 1 and 2, bacterial transcription/translation, read-out: T/T IC50 MIC) was < 4.00.

As for `CN(CCCn1c(N)nc2cc(C#N)ccc21)CCCn1c(N)nc2cc(C#N)ccc21`, the MIC against E. coli [1] (Escherichia coli) and in the assay on S. aureus [3] (Staphylococcus aureus) was > 200 µM throughout. In addition, the pIC50 in assay [2] (setting [8]) was < 3.70.

Turning to `CN(CCCn1c(N)nc2cc(Br)ccc21)CCCn1c(N)nc2cc(Br)ccc21`, the MIC in the assay with E. coli [1] (Escherichia coli) and in the assay on S. aureus [3] (Staphylococcus aureus) was 25 to 50 µM (≈ 13.4 to 26.8 µg/mL) throughout. The pIC50 in assay [2] (setting [8]) was < 4.00.

With `CN(CCn1c(N)nc2cc(Cl)c(Cl)cc21)CCn1c(N)nc2cc(Cl)c(Cl)cc21` [X = Cl], the MIC in the assay with E. coli [1] and in the assay on S. aureus [3] was >100 µM each time. In addition, in assay [2] (setting [8]), the pIC50 was < 4.00.

Consider `N[C@H]1C(O)O[C@H](CO)[C@@H](O)[C@@H]1O` (some centres unmarked) [glucosamine], for which the “binding site on the target RNA (competition), in words” value in the assay on E. coli 16S A-site [6] is “compete for the same binding site”.

On to `Cc1ccc2nc(N)n(CCCN(C)CCCn3c(N)nc4ccc(C)cc43)c2c1`, for which the MIC in the assay on E. coli [1] (Escherichia coli) and against S. aureus [3] (Staphylococcus aureus) was > 100 µM in each case. Moreover, the pIC50 in assay [2] (setting [8]) is 4.92 to 5.22.

Turning to `CN(CCCn1c(N)nc2cc(Cl)c(Cl)cc21)CCCn1c(N)nc2cc(Cl)c(Cl)cc21` [X = N—Me], in the assay on E. coli [1], the “MIC, E. coli” value lay in the range of 25 to 50 µM. The pIC50 in assay [2] (setting [8]) is 4.60. Moreover, the “MIC, S. aureus” value in the assay on S. aureus [3] fell in the range of 75 to 100 µM.

On to `Cc1ccc2[nH]c(C3CCNCC3)nc2c1` [Compound 10b], for which the “binding affinity for 16S RNA A-site, in words” value (from here on “binding affinity”) with E. coli 16S A-site [7] is given as “tolerated”.

Take `c1cnc2nc(C3CCNCC3)[nH]c2c1` [Compound 10j]: the “binding affinity” value with E. coli 16S A-site [7] was “reduced activities”.

With `CN(C)CCCn1c(N)nc2cc(CN)ccc21` [CH2NH2], in the assay with Ag IIa HCV IRES Target, the “% Complex” value turned out to be 109%, the “% Dimer” value is 80% and the Selectivity was 2.3.

For `COC(=O)c1ccc2c(c1)nc(N)n2CCCN(C)CCCn1c(N)nc2cc(C(=O)OC)ccc21`, the MIC against E. coli [1] (Escherichia coli) and against S. aureus [3] (Staphylococcus aureus) was > 200 µM in each case. The pIC50 in assay [2] (setting [8]) is < 4.00.

For the compound `COc1ccc2nc(N)n(CCCN(C)C)c2c1` [OCH3], in the assay with Ag IIa HCV IRES Target, the “% Complex” value turned out to be 286%, the “% Dimer” value stood at 39% and the Selectivity came out at 10.67.

With `CN(C)CCCn1c(N)nc2ccccc21` [H], in the assay on Ag IIa HCV IRES Target, the “% Complex” value amounted to 125%, the “% Dimer” value was determined as 35% and the Selectivity is listed as 4.30.

For `CN(C)CCCOc1ccc2nc(N)n(CCCN(C)C)c2c1` [O(CH2)3N(CH3)2], in the assay on Ag IIa HCV IRES Target, the “% Complex” value is reported as 862%, the “% Dimer” value was found to be 72% and the Selectivity came to 96.88.

On to `CN(CCCn1c(N)nc2cc(C(F)(F)F)ccc21)CCCn1c(N)nc2cc(C(F)(F)F)ccc21`, for which the minimal inhibitory concentration (MIC) in the assay on E. coli [1] (Escherichia coli) lay within 25 to 50 µM (≈ 12.8 to 25.7 µg/mL); against S. aureus [3] (Staphylococcus aureus) it was 50 to 100 µM (≈ 25.7 to 51.3 µg/mL). Besides, the pIC50 in assay [2] (setting [8]) is < 4.00.

On to `CN(CCCn1c(N)nc2ccccc21)CCCn1c(N)nc2ccccc21`, for which the MIC was 25 to 50 µM (≈ 9.44 to 18.9 µg/mL) in the assay with E. coli [1] (Escherichia coli) and 75 to 100 µM (≈ 28.3 to 37.7 µg/mL) in the assay with S. aureus [3] (Staphylococcus aureus). In assay [2] (setting [8]), the pIC50 is 4.60.

As for `CC(=O)N1CCC(c2nc3cc([N+](=O)[O-])ccc3[nH]2)CC1` [Compound 7a], the “binding affinity” value with E. coli 16S A-site [7] is “diminished the binding affinity”.

For the compound `CN(C)CCCn1c(N)nc2ccccc21` [drawing 42], the MIC in the assay with E. coli [1] (Escherichia coli) and in the assay with S. aureus [3] (Staphylococcus aureus) was > 50 µM throughout. The pIC50 in assay [2] (setting [8]) was < 4.00.

Take `Clc1ccc2[nH]c(C3CCNCC3)nc2c1` [Compound 10d]: the “binding affinity” value in the assay with E. coli 16S A-site [7] was “tolerated”.

For the compound `CN(CCCn1c(N)nc2cc(Cl)c(Cl)cc21)CCCn1c(N)nc2cc(Cl)c(Cl)cc21` [drawing 35], the minimal inhibitory concentration (MIC) against E. coli [1] (Escherichia coli) and in the assay with S. aureus [3] (Staphylococcus aureus) was 12 to 25 µM (≈ 6.18 to 12.9 µg/mL) each time. Besides, in assay [2] (setting [8]), the pIC50 is < 4.00.
